The text below walks through data of patent US7204974B2, “Stabilization of oxidation-sensitive or UV-sensitive active ingredients” (Beiersdorf AG, priority 2001, dated 2007).

The series can be described thus: Polarity of lipids. It counts as physicochemical.
The mark [1] stands for this setting: further lipids, polarity of ≧30 mN/m.
The mark [2] stands for this setting: lipids with a polarity of at most 30 mN/m.

As for `CCCCC(CC)COC(=O)CCCCCC(C)C` (stereo not drawn) [2-Ethylhexyl Isononanoate], the “Polarity mN/m” value under setting [1] amounted to 31.0 mN/m.
For `CCCCOC(=O)CCCCC(=O)OCCCC` [Cetiol B, Dibutyl Adipate], the “Polarity mN/m” value under setting [2] is given as 14.3 mN/m.
The same measure, in the same setting: to `CC(C)CCCCCCCOC(=O)C(C)(C)C` [DUB VCI 10, Isodecyl Neopentanoate] belongs 29.9 mN/m.
As for `CCCCC(CC)C(=O)OCCC(C)CC(C)(C)C` (stereo not drawn) [Dermol 98, 2-Ethylhexanoic acid 3,5,5-trimethyl ester], under setting [2], the “Polarity mN/m” value was determined as 26.2 mN/m.
As for `CCCCCCCC(=O)OCCCCCCCC(C)C` [Dermol 108, Isodecyl Octanoate], under setting [2], the “Polarity mN/m” value was found to be 29.6 mN/m.
The same measure, in the same setting: the figure for `CC(C)CCCCCCCOC(=O)CC(C)CC(C)(C)C` (stereo not drawn) [Dermol 109, Isodecyl 3,5,5-Trimethyl Hexanoate] is 29.1 mN/m; for `CCCCCCCCCC(=O)OCCCC(C)C` [Dermol IHD, Isohexyl Decanoate] it is 29.7 mN/m.
Regarding `CCCCCCOCCCCCC` [Dihexyl ether, Dihexyl Ether], the “Polarity mN/m” value under setting [2] was found to be 29.2 mN/m.
With `CCCCCCCC/C=C\CCCCCCCC(=O)OCCOCCOCC` [Ethoxydiglycol Oleate], the “Polarity mN/m” value under setting [1] is reported as 40.5 mN/m.
As to `CCCCCCCCCCC(CO)CCCCCCCC` (stereo not drawn) [Eutanol G, Octyldodecanol], the “Polarity mN/m” value under setting [2] is 24.8 mN/m.
On to `CCCCCCC(CCCC)C(=O)O` (stereo not drawn) [Isocarb 12, Butyl Octanoic Acid], for which the “Polarity mN/m” value under setting [2] is 22.1 mN/m.
Consider `CCCCCCCCCCCCCCCCCC(C)C` [Isoeicosane], for which the “Polarity mN/m” value under setting [1] is 41.9 mN/m.
For the compound `CCCCCCC(CO)CCCC` (stereo not drawn) [Isofol 12, Butyl Octanol], the “Polarity mN/m” value under setting [2] worked out at 17.4 mN/m.
The same measure, in the same setting: the figure for `CCCCCCCCC(CO)CCCCCC` (stereo not drawn) [Isofol 16, Hexyl Decanol] is 24.3 mN/m.
As for `CCCCCCCCCCCCCC(C)C` [Isohexadecane], the “Polarity mN/m” value under setting [1] came to 43.8 mN/m.
Take `CCCCCCCCCCCCCCCCCC(=O)OC(C)C` [Isopropyl stearate, Isopropyl Stearate]: the “Polarity mN/m” value under setting [2] worked out at 21.9 mN/m.
The same measure, in the same setting: to `CCCCCCCCCCCCCC(=O)OCC(CCCCCCCC)CCCCCCCCCC` (stereo not drawn) [M.O.D., Octyldodecyl Myristate] belongs 22.1 mN/m.
In the case of `CCCCCCCCOC(=O)CCCCCCCCCCCCCCC(C)C` [Octyl Isostearate], the “Polarity mN/m” value under setting [1] was 31.6 mN/m.
In the case of `CCCCCCCCCCCCCCCCCCOC(=O)CCCCCC` [Tegosoft SH, Stearyl Heptanoate], the “Polarity mN/m” value under setting [2] came out at 17.8 mN/m.
Consider `CC(CCOC(=O)CC(C)CC(C)(C)C)CC(C)(C)C` (stereo not drawn) [Trimethylhexyl Isononanoate], for which the “Polarity mN/m” value under setting [1] is recorded as 31.1 mN/m.
Regarding `CCCCCCCC(=O)OCC(COC(=O)CCCCCCC)OC(=O)CCCCCCC` [Trivent OCG, Tricaprylin], the “Polarity mN/m” value under setting [2] stood at 20.2 mN/m.
The same measure, in the same setting: to Cetearyl Isononanoate [Cetiol SN] belongs 28.6 mN/m; to Cyclomethicone [DC Fluid 345], 28.5 mN/m.
With “Cyclopolydimethylsiloxane [Dow Corning Fluid 244]”, the “Polarity mN/m” value under setting [2] was 28.5 mN/m.
Consider Dioctylcyclohexane, for which, under setting [1], the “Polarity mN/m” value is given as 39.0 mN/m.
The same measure, in the same setting: to Isocetyl Palmitate belongs 36.2 mN/m.
For the compound “Isotridecyl 3,5,5-trimethylhexanonanoate [Dermol 139]”, under setting [2], the “Polarity mN/m” value came out at 24.5 mN/m.
PEG 2 Diethylene Hexanoate [Dermol 488]: the “Polarity mN/m” value under setting [2] stood at 10.1 mN/m.
Still for that read-out and setting: the figure for “Phenyl Trimethicone [Silicone oil VP 1120]” is 22.7 mN/m; for Triisostearin [Prisorine 2041 GTIS] it is 2.4 mN/m.
